Measurements reported in paper PMC5218480 (PLoS ONE, 2017).

System: MV-4-11 cells
Experiment: Gene expression microarray analysis (Affymetrix PrimeView) and GSEA
Format: cell-based, human
Set-up: RFU PODN (11730768_x_at) / Fold change /veh PODN (11730768_x_at) / RFU LINC00158 (11744669_a_at) / Fold change /veh LINC00158 (11744669_a_at) / RFU DUSP10 (11751237_a_at) / Fold change /veh DUSP10 (11751237_a_at) / RFU ID3 (11757404_x_at) / Fold change /veh ID3 (11757404_x_at) / RFU PLEKHG5 (11737974_s_at) / Fold change /veh PLEKHG5 (11737974_s_at) / RFU LRRC4B (11730491_at) / Fold change /veh LRRC4B (11730491_at) / RFU GIMAP4 (11747438_a_at) / Fold change /veh GIMAP4 (11747438_a_at) / RFU KRT8 (11758183_x_at) / Fold change /veh KRT8 (11758183_x_at) / RFU CNN1 (11734310_a_at) / Fold change /veh CNN1 (11734310_a_at) / RFU VPS37D (11726825_at) / Fold change /veh VPS37D (11726825_at) / RFU C10orf10 (11716522_x_at) / Fold change /veh C10orf10 (11716522_x_at) / RFU KIR2DL2 /// KIR2DL4 /// KIR2DL5A /// KIR2DL5B /// KIR2DS1 /// KIR2DS2 /// KIR2DS3 /// KIR2DS4 /// KIR3DL3 /// KIR3DL3 /// KIR3DS1 (11738374_at) / Fold change /veh KIR2DL2 /// KIR2DL4 /// KIR2DL5A /// KIR2DL5B /// KIR2DS1 /// KIR2DS2 /// KIR2DS3 /// KIR2DS4 /// KIR3DL3 /// KIR3DL3 /// KIR3DS1 (11738374_at) / RFU C1QL1 (11718748_at) / Fold change /veh C1QL1 (11718748_at) / RFU TMPRSS4 (11747572_a_at) / Fold change /veh TMPRSS4 (11747572_a_at) / RFU HAMP (11756126_x_at) / Fold change /veh HAMP (11756126_x_at) / RFU RNFT2 (11725882_a_at) / Fold change /veh RNFT2 (11725882_a_at) / RFU NR4A2 (11747474_a_at) / Fold change /veh NR4A2 (11747474_a_at) / RFU ABCC12 (11746883_a_at) / Fold change /veh ABCC12 (11746883_a_at) / RFU TMEM136 (11760407_x_at) / Fold change /veh TMEM136 (11760407_x_at) / RFU CLDN22 /// WWC2 (11732394_at) / Fold change /veh CLDN22 /// WWC2 (11732394_at) / RFU HLA-DPB1 (11760878_x_at) / Fold change /veh HLA-DPB1 (11760878_x_at) / RFU SPINT1 (11716480_a_at) / Fold change /veh SPINT1 (11716480_a_at) / RFU GAP43 (11754022_s_at) / Fold change /veh GAP43 (11754022_s_at) / RFU A4GNT (11735810_at) / Fold change /veh A4GNT (11735810_at) / RFU PRB3 (11715151_x_at) / Fold change /veh PRB3 (11715151_x_at) / RFU TUBB4B (11761932_at) / Fold change /veh TUBB4B (11761932_at) / RFU CAPN14 (11732068_a_at) / Fold change /veh CAPN14 (11732068_a_at) / RFU TMCC2 (11721928_a_at) / Fold change /veh TMCC2 (11721928_a_at) / RFU IRGQ (11745062_a_at) / Fold change /veh IRGQ (11745062_a_at) / RFU FAM174B (11720279_a_at) / Fold change /veh FAM174B (11720279_a_at) / RFU TMPRSS4 (11748680_a_at) / Fold change /veh TMPRSS4 (11748680_a_at) / RFU FAM212B (11763350_a_at) / Fold change /veh FAM212B (11763350_a_at) / RFU PLEKHG5 (11743358_a_at) / Fold change /veh PLEKHG5 (11743358_a_at) / RFU ZSCAN30 (11745921_a_at) / Fold change /veh ZSCAN30 (11745921_a_at) / RFU CMKLR1 (11741424_a_at) / Fold change /veh CMKLR1 (11741424_a_at) / RFU LOC101060620 /// MAPK8IP1 (11723275_at) / Fold change /veh LOC101060620 /// MAPK8IP1 (11723275_at) / RFU SPTSSB (11747773_x_at) / Fold change /veh SPTSSB (11747773_x_at) / RFU PRSS12 (11739890_at) / Fold change /veh PRSS12 (11739890_at) / RFU BIN1 (11741810_x_at) / Fold change /veh BIN1 (11741810_x_at) / RFU WNT11 (11732464_a_at) / Fold change /veh WNT11 (11732464_a_at) / RFU C10orf10 (11716521_a_at) / Fold change /veh C10orf10 (11716521_a_at) / RFU C5orf56 (11738089_at) / Fold change /veh C5orf56 (11738089_at) / RFU CYB561 (11721691_x_at) / Fold change /veh CYB561 (11721691_x_at) / RFU ANKRD19P (11752326_a_at) / Fold change /veh ANKRD19P (11752326_a_at) / RFU OR2T12 /// OR2T33 /// OR2T8 (11738714_s_at) / Fold change /veh OR2T12 /// OR2T33 /// OR2T8 (11738714_s_at) / RFU VCAN (11748164_a_at) / Fold change /veh VCAN (11748164_a_at) / RFU JSRP1 (11732532_at) / Fold change /veh JSRP1 (11732532_at) / RFU KRTAP10-11 (11738290_x_at) / Fold change /veh KRTAP10-11 (11738290_x_at) / RFU MYO3A (11730013_a_at) / Fold change /veh MYO3A (11730013_a_at) / RFU EBF3 (11725865_a_at) / Fold change /veh EBF3 (11725865_a_at) / RFU CAMK2N1 (11719241_x_at) / Fold change /veh CAMK2N1 (11719241_x_at) / RFU C5orf56 (11738088_a_at) / Fold change /veh C5orf56 (11738088_a_at) / RFU OLFML3 (11715873_a_at) / Fold change /veh OLFML3 (11715873_a_at) / RFU LOC100653217 /// NTM (11731650_a_at) / Fold change /veh LOC100653217 /// NTM (11731650_a_at) / RFU MAPK11 (11762145_a_at) / Fold change /veh MAPK11 (11762145_a_at) / RFU FIZ1 (11724087_x_at) / Fold change /veh FIZ1 (11724087_x_at) / RFU OASL (11726364_x_at) / Fold change /veh OASL (11726364_x_at) / RFU SOX15 (11748057_x_at) / Fold change /veh SOX15 (11748057_x_at) / RFU CD79A (11719716_a_at) / Fold change /veh CD79A (11719716_a_at) / RFU HIST1H1D (11736915_at) / Fold change /veh HIST1H1D (11736915_at) / RFU CASKIN2 (11723855_a_at) / Fold change /veh CASKIN2 (11723855_a_at) / RFU LOC730098 (11760151_x_at) / Fold change /veh LOC730098 (11760151_x_at) / RFU OR4N2 (11742367_at) / Fold change /veh OR4N2 (11742367_at) / RFU PRRT2 (11749266_a_at) / Fold change /veh PRRT2 (11749266_a_at) / RFU SNX32 (11753110_a_at) / Fold change /veh SNX32 (11753110_a_at) / RFU CDHR5 (11726645_a_at) / Fold change /veh CDHR5 (11726645_a_at) / RFU RCAN1 (11760418_a_at) / Fold change /veh RCAN1 (11760418_a_at) / RFU FAM167A (11723789_a_at) / Fold change /veh FAM167A (11723789_a_at) / RFU FAM26E (11764081_at) / Fold change /veh FAM26E (11764081_at) / RFU ISYNA1 (11749810_s_at) / Fold change /veh ISYNA1 (11749810_s_at) / RFU ACY1 (11761880_at) / Fold change /veh ACY1 (11761880_at) / RFU 11764098_at / Fold change /veh 11764098_at / RFU SAMD14 (11745864_x_at) / Fold change /veh SAMD14 (11745864_x_at) / RFU NPB (11741838_a_at) / Fold change /veh NPB (11741838_a_at) / RFU TMPRSS6 (11731388_a_at) / Fold change /veh TMPRSS6 (11731388_a_at) / RFU KRTAP10-2 (11738614_at) / Fold change /veh KRTAP10-2 (11738614_at) / RFU ARHGAP8 /// PRR5-ARHGAP8 (11727945_x_at) / Fold change /veh ARHGAP8 /// PRR5-ARHGAP8 (11727945_x_at) / RFU KRTAP5-7 /// NADSYN1 (11734609_at) / Fold change /veh KRTAP5-7 /// NADSYN1 (11734609_at) / RFU RASL12 (11751679_a_at) / Fold change /veh RASL12 (11751679_a_at) / RFU CDKN2B (11736163_a_at) / Fold change /veh CDKN2B (11736163_a_at) / RFU PRF1 (11729649_at) / Fold change /veh PRF1 (11729649_at) / RFU, ZNF638 /// ZNF638-IT1 / Fold change vs veh, ZNF638 /// ZNF638-IT1 / RFU, PANK3 / Fold change vs veh, PANK3 / RFU, SH3YL1 / Fold change vs veh, SH3YL1 / RFU, ZEB2 / Fold change vs veh, ZEB2 / RFU, NRIP1 / Fold change vs veh, NRIP1 / RFU, PTTG1IP / Fold change vs veh, PTTG1IP / RFU, CAPN2 / Fold change vs veh, CAPN2 / RFU, MED14 / Fold change vs veh, MED14 / RFU, SNORA58 / Fold change vs veh, SNORA58 / RFU, C1orf63 / Fold change vs veh, C1orf63 / RFU, LRRFIP1 / Fold change vs veh, LRRFIP1 / RFU, NDUFAF7 / Fold change vs veh, NDUFAF7 / RFU, SLC12A2 / Fold change vs veh, SLC12A2 / RFU, IBTK / Fold change vs veh, IBTK / RFU, ESF1 / Fold change vs veh, ESF1 / Fold change vs veh, TMEM50B / RFU, TAOK1 / Fold change vs veh, TAOK1 / RFU, ACBD3 / Fold change vs veh, ACBD3 / RFU, TMA16 / Fold change vs veh, TMA16 / RFU, RWDD3 / Fold change vs veh, RWDD3 / RFU, BCAT1 / Fold change vs veh, BCAT1 / RFU, EDEM3 / Fold change vs veh, EDEM3 / RFU, TMEM33 / Fold change vs veh, TMEM33 / RFU, WDR75 / Fold change vs veh, WDR75 / RFU, AHCTF1 / Fold change vs veh, AHCTF1 / RFU, TFRC / Fold change vs veh, TFRC / RFU, ZDHHC17 / Fold change vs veh, ZDHHC17 / RFU, NOM1 / Fold change vs veh, NOM1 / RFU, ARL8B / Fold change vs veh, ARL8B / RFU, ZBTB11 / Fold change vs veh, ZBTB11 / RFU, TAMM41 / Fold change vs veh, TAMM41 / RFU, KIAA1704 /// LOC100996395 / Fold change vs veh, KIAA1704 /// LOC100996395 / RFU, ING1 / Fold change vs veh, ING1 / RFU, TRMT61B / Fold change vs veh, TRMT61B / RFU, FUBP3 / Fold change vs veh, FUBP3 / RFU, TP53 / Fold change vs veh, TP53 / RFU, TNKS2 / Fold change vs veh, TNKS2 / RFU, ZFP14 / Fold change vs veh, ZFP14 / RFU, ACTR2 / Fold change vs veh, ACTR2 / RFU, PPP3R1 / Fold change vs veh, PPP3R1 / RFU, PIK3R1 / Fold change vs veh, PIK3R1 / RFU, HNRNPA1 / Fold change vs veh, HNRNPA1 / RFU, RNF170 / Fold change vs veh, RNF170 / RFU, ZNF28 / Fold change vs veh, ZNF28 / RFU, RNGTT / Fold change vs veh, RNGTT / RFU, OGT / Fold change vs veh, OGT / RFU, BRD1 / Fold change vs veh, BRD1 / RFU, MARS / Fold change vs veh, MARS / RFU, ZNF655 / Fold change vs veh, ZNF655 / RFU, FAHD1 / Fold change vs veh, FAHD1 / RFU, BDP1 / Fold change vs veh, BDP1 / RFU, LRRCC1 / Fold change vs veh, LRRCC1 / RFU, ARID1A / Fold change vs veh, ARID1A / RFU, ZNF146 / Fold change vs veh, ZNF146 / RFU, ZNF330 / Fold change vs veh, ZNF330 / RFU, GPN3 / Fold change vs veh, GPN3 / RFU, C9orf123 / Fold change vs veh, C9orf123 / RFU, N4BP2L2 / Fold change vs veh, N4BP2L2 / RFU, ARFIP1 / Fold change vs veh, ARFIP1 / RFU, FAM179B / Fold change vs veh, FAM179B / RFU, BCL10 / Fold change vs veh, BCL10 / RFU, UHRF1BP1L / Fold change vs veh, UHRF1BP1L / RFU, BET1 / Fold change vs veh, BET1 / RFU, CNOT2 / Fold change vs veh, CNOT2 / RFU, ZNF268 / Fold change vs veh, ZNF268 / Fold change vs veh, ZNF507 / RFU, DGCR2 / Fold change vs veh, DGCR2 / RFU, WDSUB1 / Fold change vs veh, WDSUB1 / Fold change vs veh, HSP90B1 /// MIR3652 / RFU, ADSS / Fold change vs veh, ADSS / RFU, GK / Fold change vs veh, GK / RFU, ZNF148 / Fold change vs veh, ZNF148 / RFU, TAF9 / Fold change vs veh, TAF9 / RFU, SLC1A5 / Fold change vs veh, SLC1A5 / RFU, SLMO2 / Fold change vs veh, SLMO2 / RFU, ABCC4 / Fold change vs veh, ABCC4 / RFU, LOC101060439 /// RAP1B / Fold change vs veh, LOC101060439 /// RAP1B / RFU, RFX7 / Fold change vs veh, RFX7 / RFU, GTPBP10 / Fold change vs veh, GTPBP10 / RFU, CNEP1R1 / Fold change vs veh, CNEP1R1 / RFU, BIVM-ERCC5 /// ERCC5 / Fold change vs veh, BIVM-ERCC5 /// ERCC5 / RFU, ILF3 / Fold change vs veh, ILF3 / RFU 11762660_at / Fold change /veh 11762660_at / RFU VCAN (11757783_s_at) / Fold change /veh VCAN (11757783_s_at) / RFU DDX43 (11728927_at) / Fold change /veh DDX43 (11728927_at) / RFU KRT8 (11758188_x_at) / Fold change /veh KRT8 (11758188_x_at) / RFU NKD1 (11759106_at) / Fold change /veh NKD1 (11759106_at) / RFU SRD5A1 (11742802_a_at) / Fold change /veh SRD5A1 (11742802_a_at) / RFU TPSAB1 /// TPSB2 (11721975_s_at) / Fold change /veh TPSAB1 /// TPSB2 (11721975_s_at) / RFU GSTM3 (11746129_a_at) / Fold change /veh GSTM3 (11746129_a_at) / RFU IL23R (11737362_x_at) / Fold change /veh IL23R (11737362_x_at) / RFU TMEM51 (11727254_a_at) / Fold change /veh TMEM51 (11727254_a_at) / RFU PIWIL2 (11732686_x_at) / Fold change /veh PIWIL2 (11732686_x_at) / RFU ORM1 (11744905_x_at) / Fold change /veh ORM1 (11744905_x_at) / RFU CCDC152 (11743942_at) / Fold change /veh CCDC152 (11743942_at) / RFU ECM1 (11717891_a_at) / Fold change /veh ECM1 (11717891_a_at) / RFU IL23R (11748794_a_at) / Fold change /veh IL23R (11748794_a_at) / RFU TNFAIP8L3 (11732012_x_at) / Fold change /veh TNFAIP8L3 (11732012_x_at) / RFU MBOAT4 (11741988_at) / Fold change /veh MBOAT4 (11741988_at) / RFU 11764193_at / Fold change /veh 11764193_at / RFU TMEM53 (11763286_at) / Fold change /veh TMEM53 (11763286_at) / RFU MAGEB2 (11727129_at) / Fold change /veh MAGEB2 (11727129_at) / RFU TMEM200A (11744735_a_at) / Fold change /veh TMEM200A (11744735_a_at) / RFU CCDC152 (11751479_a_at) / Fold change /veh CCDC152 (11751479_a_at) / RFU FAM211A (11726209_a_at) / Fold change /veh FAM211A (11726209_a_at) / RFU RGS16 (11746705_a_at) / Fold change /veh RGS16 (11746705_a_at) / RFU VCAN (11755009_s_at) / Fold change /veh VCAN (11755009_s_at) / RFU RHOB (11743442_s_at) / Fold change /veh RHOB (11743442_s_at) / RFU RGS16 (11720943_a_at) / Fold change /veh RGS16 (11720943_a_at) / RFU RGS16 (11720944_at) / Fold change /veh RGS16 (11720944_at) / RFU, VPS4B / Fold change vs veh, VPS4B / RFU, CREB1 / Fold change vs veh, CREB1 / RFU, DNAJC13 / Fold change vs veh, DNAJC13 / RFU, GNAQ / Fold change vs veh, GNAQ / RFU, CDK5R1 / Fold change vs veh, CDK5R1 / RFU, ZRANB3 / Fold change vs veh, ZRANB3 / RFU, CUL4A / Fold change vs veh, CUL4A / RFU, CCNY / Fold change vs veh, CCNY / RFU, UFL1 / Fold change vs veh, UFL1 / RFU, COG3 / Fold change vs veh, COG3 / RFU, DIAPH2 / Fold change vs veh, DIAPH2 / RFU, SKA2 / Fold change vs veh, SKA2 / RFU, AFF3 / Fold change vs veh, AFF3 / RFU, LMF1 / Fold change vs veh, LMF1 / RFU, IPO11 / Fold change vs veh, IPO11 / RFU, DFFB / Fold change vs veh, DFFB / RFU, FOXP1 / Fold change vs veh, FOXP1 / RFU, CARD8 / Fold change vs veh, CARD8 / RFU, STRN3 / Fold change vs veh, STRN3 / RFU, ADK / Fold change vs veh, ADK / RFU, RASSF2 / Fold change vs veh, RASSF2 / RFU, WIPF1 / Fold change vs veh, WIPF1 / RFU, LARP1B / Fold change vs veh, LARP1B / RFU, RASA1 / Fold change vs veh, RASA1 / RFU, RB1 / Fold change vs veh, RB1 / RFU, PPFIA1 / Fold change vs veh, PPFIA1 / RFU, MAT2A / Fold change vs veh, MAT2A / RFU, CCT5 / Fold change vs veh, CCT5 / RFU, WDR92 / Fold change vs veh, WDR92 / RFU, CUX1 / Fold change vs veh, CUX1 / RFU, TTC7A / Fold change vs veh, TTC7A / RFU, TMEM135 / Fold change vs veh, TMEM135 / RFU, DEPTOR / Fold change vs veh, DEPTOR / RFU, CPM / Fold change vs veh, CPM / RFU, DNAJB6 / Fold change vs veh, DNAJB6 / RFU, CACNA2D3 / Fold change vs veh, CACNA2D3 / RFU, DTX4 / Fold change vs veh, DTX4 / RFU, TFCP2 / Fold change vs veh, TFCP2 / RFU, GMCL1 /// GMCL1P1 / Fold change vs veh, GMCL1 /// GMCL1P1 / RFU, AEBP2 / Fold change vs veh, AEBP2 / RFU, SNHG1 /// SNORD22 /// SNORD25 /// SNORD26 /// SNORD27 /// SNORD28 /// SNORD29 /// SNORD31 / Fold change vs veh, SNHG1 /// SNORD22 /// SNORD25 /// SNORD26 /// SNORD27 /// SNORD28 /// SNORD29 /// SNORD31 / Fold change (Aza/veh), C12orf56 (ProbeSet 11735607_a_at) / Fold change (ACY-1035/veh), C12orf56 (ProbeSet 11735607_a_at) / Fold change (Aza/veh), FGFR1OP (ProbeSet 11751329_s_at) / Fold change (ACY-1035/veh), FGFR1OP (ProbeSet 11751329_s_at) / Fold change (Aza/veh), VPS36 (ProbeSet 11739960_a_at) / Fold change (ACY-1035/veh), VPS36 (ProbeSet 11739960_a_at) / RFU SYPL1 (11715823_x_at) / Fold change /veh SYPL1 (11715823_x_at) / RFU IGFBP7 (11715501_s_at) / Fold change /veh IGFBP7 (11715501_s_at) / RFU REEP3 (11722064_at) / Fold change /veh REEP3 (11722064_at) / RFU IGLL1 (11728026_x_at) / Fold change /veh IGLL1 (11728026_x_at): dose or concentration left out as unconfirmed
Details: MV-4-11 cells, 48 hours

SMILES: Nc1ccc(-c2cccs2)cc1NC(=O)c1ccc2c(c1)cc(C1CC1)n2CCN1CCOCC1 [ACY-1035]
- RFU NR4A2 (11747474_a_at): 22.98 RFU
